Measured values from ChEMBL document CHEMBL3885861, “Open TG-GATES”.

Organism: Rattus norvegicus
Test: Open TG-GATES - Regimen: Single
Assay type: toxicity, organism-based, Sprague-Dawley
Parameters: regimen Single, gender Male, age 6 weeks
Conditions: in vivo, po, route gavage; for gamma-GTP / ALP / ALT / AST / BUN / CRE / Ca / Cl / DBIL / GLC / IP / LDH / Na / PL / RALB / TBIL / TC / TG / TP: tissue Plasma; for APTT / Bas / Eos / Fbg / Hb / Ht / Lym / MCH / MCHC / MCV / Mono / Neu / PT / Plat / RBC / Ret / WBC: tissue Blood; for KIDNEY_L / KIDNEY_R / KIDNEY_TOTAL: tissue Kidney; for LIVER: tissue Liver

Compound: CC(=O)N1CCN(c2ccc(OCC3COC(Cn4ccnc4)(c4ccc(Cl)cc4Cl)O3)cc2)CC1 (stereo not given) [KETOCONAZOLE]
- gamma-GTP (0 mg/kg, 24 h, dose level Control): 1.2 IU/L
- TERMINAL_BW (10 mg/kg, 3 h, dose level Low): 205.2 g
- APTT (10 mg/kg, 3 h, dose level Low): 20.8 s
- Bas (10 mg/kg, 3 h, dose level Low): 0%
- Eos (10 mg/kg, 3 h, dose level Low): 0.8%
- Fbg (10 mg/kg, 3 h, dose level Low): 286.4 mg/dL
- Hb (10 mg/kg, 3 h, dose level Low): 12.9 g/dL
- Ht (10 mg/kg, 3 h, dose level Low): 38.9%
- Lym (10 mg/kg, 3 h, dose level Low): 79.2%
- MCH (10 mg/kg, 3 h, dose level Low): 21.8 pg
- MCHC (10 mg/kg, 3 h, dose level Low): 33.1%
- MCV (10 mg/kg, 3 h, dose level Low): 66.1 fL
- Mono (10 mg/kg, 3 h, dose level Low): 2%
- Neu (10 mg/kg, 3 h, dose level Low): 17.2%
- PT (10 mg/kg, 3 h, dose level Low): 16.9 s
- Plat (10 mg/kg, 3 h, dose level Low): 122.3 x10_4/uL
- RBC (10 mg/kg, 3 h, dose level Low): 590.2 x10_4/ul
- Ret (10 mg/kg, 3 h, dose level Low): 8.5%
- WBC (10 mg/kg, 3 h, dose level Low): 81.1 x10_2/uL
- KIDNEY_L (10 mg/kg, 3 h, dose level Low): 1 g
- KIDNEY_R (10 mg/kg, 3 h, dose level Low): 1 g
- KIDNEY_TOTAL (10 mg/kg, 3 h, dose level Low): 2 g
- LIVER (10 mg/kg, 3 h, dose level Low): 9.7 g
- ALP (10 mg/kg, 3 h, dose level Low): 1809.4 IU/L
- ALT (10 mg/kg, 3 h, dose level Low): 44.2 IU/L
- AST (10 mg/kg, 3 h, dose level Low): 74.2 IU/L
- BUN (10 mg/kg, 3 h, dose level Low): 12.6 mg/dL
- CRE (10 mg/kg, 3 h, dose level Low): 0.2 mg/dL
- Ca (10 mg/kg, 3 h, dose level Low): 10.8 mg/dL
- Cl (10 mg/kg, 3 h, dose level Low): 105.4 meq/L
- DBIL (10 mg/kg, 3 h, dose level Low): 0 mg/dL
- GLC (10 mg/kg, 3 h, dose level Low): 183.6 mg/dL
- IP (10 mg/kg, 3 h, dose level Low): 7.7 mg/dL
- LDH (10 mg/kg, 3 h, dose level Low): 214.6 IU/L
- Na (10 mg/kg, 3 h, dose level Low): 140.8 meq/L
- PL (10 mg/kg, 3 h, dose level Low): 138.4 mg/dL
- RALB (10 mg/kg, 3 h, dose level Low): 2.9 g/dL
- TBIL (10 mg/kg, 3 h, dose level Low): 0.014 mg/dL
- TC (10 mg/kg, 3 h, dose level Low): 76.6 mg/dL
- TG (10 mg/kg, 3 h, dose level Low): 69.8 mg/dL
- TP (10 mg/kg, 3 h, dose level Low): 5.3 g/dL
- gamma-GTP (10 mg/kg, 3 h, dose level Low): 1.2 IU/L
- TERMINAL_BW (10 mg/kg, 6 h, dose level Low): 202.4 g
- APTT (10 mg/kg, 6 h, dose level Low): 20.6 s
- Bas (10 mg/kg, 6 h, dose level Low): 0%
- Eos (10 mg/kg, 6 h, dose level Low): 0.6%
- Fbg (10 mg/kg, 6 h, dose level Low): 294 mg/dL
- Hb (10 mg/kg, 6 h, dose level Low): 13.2 g/dL
- Ht (10 mg/kg, 6 h, dose level Low): 39.7%
- Lym (10 mg/kg, 6 h, dose level Low): 78.8%
- MCH (10 mg/kg, 6 h, dose level Low): 21 pg
- MCHC (10 mg/kg, 6 h, dose level Low): 33.2%
- MCV (10 mg/kg, 6 h, dose level Low): 63.2 fL
- Mono (10 mg/kg, 6 h, dose level Low): 1.4%
- Neu (10 mg/kg, 6 h, dose level Low): 18.2%
- PT (10 mg/kg, 6 h, dose level Low): 16.5 s
- Plat (10 mg/kg, 6 h, dose level Low): 134.3 x10_4/uL
- RBC (10 mg/kg, 6 h, dose level Low): 628.6 x10_4/ul
- Ret (10 mg/kg, 6 h, dose level Low): 8.4%
- WBC (10 mg/kg, 6 h, dose level Low): 66.2 x10_2/uL
- KIDNEY_L (10 mg/kg, 6 h, dose level Low): 0.9 g
- KIDNEY_R (10 mg/kg, 6 h, dose level Low): 0.9 g
- KIDNEY_TOTAL (10 mg/kg, 6 h, dose level Low): 1.8 g
- LIVER (10 mg/kg, 6 h, dose level Low): 8.6 g
- ALP (10 mg/kg, 6 h, dose level Low): 1453.2 IU/L
- AST (10 mg/kg, 6 h, dose level Low): 72.2 IU/L
- BUN (10 mg/kg, 6 h, dose level Low): 11 mg/dL
- CRE (10 mg/kg, 6 h, dose level Low): 0.2 mg/dL
- Ca (10 mg/kg, 6 h, dose level Low): 11 mg/dL
- Cl (10 mg/kg, 6 h, dose level Low): 105.8 meq/L
- DBIL (10 mg/kg, 6 h, dose level Low): 0.004 mg/dL
- GLC (10 mg/kg, 6 h, dose level Low): 172.8 mg/dL
- IP (10 mg/kg, 6 h, dose level Low): 9.2 mg/dL
- LDH (10 mg/kg, 6 h, dose level Low): 238.6 IU/L
- Na (10 mg/kg, 6 h, dose level Low): 142.2 meq/L
- PL (10 mg/kg, 6 h, dose level Low): 146.6 mg/dL
- RALB (10 mg/kg, 6 h, dose level Low): 3.1 g/dL
- TBIL (10 mg/kg, 6 h, dose level Low): 0.028 mg/dL
- TC (10 mg/kg, 6 h, dose level Low): 81.4 mg/dL
- TG (10 mg/kg, 6 h, dose level Low): 57 mg/dL
- TP (10 mg/kg, 6 h, dose level Low): 5.5 g/dL
- gamma-GTP (10 mg/kg, 6 h, dose level Low): 1 IU/L
- TERMINAL_BW (10 mg/kg, 9 h, dose level Low): 202 g
- APTT (10 mg/kg, 9 h, dose level Low): 21.2 s
- Bas (10 mg/kg, 9 h, dose level Low): 0%
- Eos (10 mg/kg, 9 h, dose level Low): 0.6%
- Fbg (10 mg/kg, 9 h, dose level Low): 303 mg/dL
- Hb (10 mg/kg, 9 h, dose level Low): 12.8 g/dL
- Ht (10 mg/kg, 9 h, dose level Low): 38.6%
- Lym (10 mg/kg, 9 h, dose level Low): 79.8%
- MCH (10 mg/kg, 9 h, dose level Low): 20.9 pg
- MCHC (10 mg/kg, 9 h, dose level Low): 33.3%
- MCV (10 mg/kg, 9 h, dose level Low): 62.8 fL
- Mono (10 mg/kg, 9 h, dose level Low): 2%
- Neu (10 mg/kg, 9 h, dose level Low): 17%
- PT (10 mg/kg, 9 h, dose level Low): 16.2 s
- Plat (10 mg/kg, 9 h, dose level Low): 120.8 x10_4/uL
- RBC (10 mg/kg, 9 h, dose level Low): 614.6 x10_4/ul
- Ret (10 mg/kg, 9 h, dose level Low): 8.5%
- WBC (10 mg/kg, 9 h, dose level Low): 64.8 x10_2/uL
- KIDNEY_L (10 mg/kg, 9 h, dose level Low): 1 g
- KIDNEY_R (10 mg/kg, 9 h, dose level Low): 1 g
- KIDNEY_TOTAL (10 mg/kg, 9 h, dose level Low): 1.9 g
- LIVER (10 mg/kg, 9 h, dose level Low): 8.9 g
- ALP (10 mg/kg, 9 h, dose level Low): 1290.2 IU/L
- ALT (10 mg/kg, 9 h, dose level Low): 33 IU/L
- AST (10 mg/kg, 9 h, dose level Low): 63.8 IU/L
- BUN (10 mg/kg, 9 h, dose level Low): 11.2 mg/dL
- CRE (10 mg/kg, 9 h, dose level Low): 0.1 mg/dL
- Ca (10 mg/kg, 9 h, dose level Low): 10.6 mg/dL
- Cl (10 mg/kg, 9 h, dose level Low): 104.8 meq/L
- DBIL (10 mg/kg, 9 h, dose level Low): 0 mg/dL
- GLC (10 mg/kg, 9 h, dose level Low): 182.4 mg/dL
- IP (10 mg/kg, 9 h, dose level Low): 9.8 mg/dL
- LDH (10 mg/kg, 9 h, dose level Low): 211.4 IU/L
- Na (10 mg/kg, 9 h, dose level Low): 140.6 meq/L
- PL (10 mg/kg, 9 h, dose level Low): 137.8 mg/dL
- RALB (10 mg/kg, 9 h, dose level Low): 3.1 g/dL
- TBIL (10 mg/kg, 9 h, dose level Low): 0.018 mg/dL
- TC (10 mg/kg, 9 h, dose level Low): 80.2 mg/dL
- TG (10 mg/kg, 9 h, dose level Low): 52.8 mg/dL
- TP (10 mg/kg, 9 h, dose level Low): 5.6 g/dL
- gamma-GTP (10 mg/kg, 9 h, dose level Low): 1.2 IU/L
- TERMINAL_BW (10 mg/kg, 24 h, dose level Low): 212.3 g
- APTT (10 mg/kg, 24 h, dose level Low): 20.9 s
- Bas (10 mg/kg, 24 h, dose level Low): 0%
- Eos (10 mg/kg, 24 h, dose level Low): 1%
- Fbg (10 mg/kg, 24 h, dose level Low): 300 mg/dL
- Hb (10 mg/kg, 24 h, dose level Low): 13 g/dL
- Ht (10 mg/kg, 24 h, dose level Low): 38.5%
- Lym (10 mg/kg, 24 h, dose level Low): 81%
- MCH (10 mg/kg, 24 h, dose level Low): 21.3 pg
- MCV (10 mg/kg, 24 h, dose level Low): 63.4 fL
- Mono (10 mg/kg, 24 h, dose level Low): 1.8%
- Neu (10 mg/kg, 24 h, dose level Low): 15.6%
- PT (10 mg/kg, 24 h, dose level Low): 16.5 s
- Plat (10 mg/kg, 24 h, dose level Low): 129.6 x10_4/uL
- RBC (10 mg/kg, 24 h, dose level Low): 608 x10_4/ul
- Ret (10 mg/kg, 24 h, dose level Low): 7.8%
- WBC (10 mg/kg, 24 h, dose level Low): 74 x10_2/uL
- KIDNEY_L (10 mg/kg, 24 h, dose level Low): 0.9 g
- KIDNEY_R (10 mg/kg, 24 h, dose level Low): 0.9 g
- KIDNEY_TOTAL (10 mg/kg, 24 h, dose level Low): 1.9 g
- LIVER (10 mg/kg, 24 h, dose level Low): 10 g
- ALP (10 mg/kg, 24 h, dose level Low): 1553.2 IU/L
- ALT (10 mg/kg, 24 h, dose level Low): 44.2 IU/L
- AST (10 mg/kg, 24 h, dose level Low): 71 IU/L
- BUN (10 mg/kg, 24 h, dose level Low): 16 mg/dL
- CRE (10 mg/kg, 24 h, dose level Low): 0.2 mg/dL
- Ca (10 mg/kg, 24 h, dose level Low): 10.7 mg/dL
- Cl (10 mg/kg, 24 h, dose level Low): 107.2 meq/L
- DBIL (10 mg/kg, 24 h, dose level Low): 0 mg/dL
- GLC (10 mg/kg, 24 h, dose level Low): 176.6 mg/dL
- IP (10 mg/kg, 24 h, dose level Low): 7.1 mg/dL
- LDH (10 mg/kg, 24 h, dose level Low): 209 IU/L
- Na (10 mg/kg, 24 h, dose level Low): 141.6 meq/L
- PL (10 mg/kg, 24 h, dose level Low): 140 mg/dL
- RALB (10 mg/kg, 24 h, dose level Low): 3.1 g/dL
- TBIL (10 mg/kg, 24 h, dose level Low): 0.006 mg/dL
- TC (10 mg/kg, 24 h, dose level Low): 74 mg/dL
